{"source": "patent US11700870B2", "about": "“Use of tri- and tetra-saccharides as taste modulators” (Tate & Lyle Solutions USA LLC, priority 2016, dated 2023)", "key": {"[1]": {"conditions": "as compared to sucrose; cited from earlier work"}, "[2]": {"conditions": "on a weight basis; cited from earlier work"}, "panelists [3]": {"test_system": "panelists", "test": "Sweetness rating against sucrose SEV reference solutions", "type": "in vivo, human", "conditions": "for sweetness equivalence, as % solution of sucrose: 10% solution of the saccharide", "description": "(§1) Additional sensory testing was carried out in accordance with the following procedure. The general framework for the sensory testing was to compare various concentrations of steviol glycoside (rebaudioside A) ranging from 100 ppm to as high as 2000 ppm at intervals spaced to characterize an adequate dose response. Due to known carryover effects, products were served as no more than two products per day, generally served as one of the following pairs: 100 ppm/250 ppm; 500 ppm/1000 ppm; 750 ppm/1500 ppm; 1000 ppm/2000 ppm. The products were not served counterbalanced, but were instead served in ascending concentration to allow for cleaner reads on both data points. The solutions were served in 2 ounce soufflé cups coded with 3-digit codes at room temperature. Store-purchased distilled water and unsalted crackers were available for the panelists to clear their palates before and during testing. Each daily study targeted 30 persons, though at times as fewer panelists were tested due to exclusionary requirements (i.e., those who are lactating, pregnant, on medication, etc., begin the study but then drop out during the study).\nThe study was designed as a rating study using an anchored scale of references of sucrose solutions in neutral pH water. In this study, panelists received a series of reference samples labeled and identified with their SEV equivalence. The range exceeded the expected sweetness of the test sample and panelists rated the sweetness using a 15-pt maximum that exceeds the expected sweetness of the test sample.\nBecause one cannot predict the sensitivities of all individuals effectively prior to testing, a broader range of references was used. Specifically, SEV references were as follows (the percentages stated are in weight %):\n(§2) Panelists first were asked to familiarize themselves with the intensity of each reference solution and its corresponding SEV. Next, they waited 30 sec and cleansed their palate with water and a cracker. Then panelists were asked to taste the test sample (identified by a random 3-digit code). Then they were instructed to drag a marker on a line scale to match the sweetness of their test samples relative to the references noted above, with the scale ranging from 0 to 15. The value they selected was shown above the line scale so panelists were aware of what values they were indicating. Once this was complete, inquiries related to the liking of the test sample, the similarity of the taste of the test sample to sugar, the intensity of any off flavors, and the identity of any off flavors were asked."}, "panelists [4]": {"test_system": "panelists", "test": "Comparative bitterness of 1000 ppm rebaudioside A 97 solutions, three panelists", "type": "in vivo, human", "conditions": "for masking the bitterness of rebaudioside A 97: conclusion from the panel, 10% with 1000 ppm rebaudioside A 97", "description": "Three aqueous solutions of 1000 ppm rebaudioside A 97 (rebaudioside A having a purity of 97%) were prepared with 10% maltotriose, 2.5% sucrose, or no additional component. The sweetness of a 10% maltotriose solution is approximately equal to a 2.5% sucrose solution. Three panelists were asked to assess the samples for comparative bitterness and were instructed to rinse with water between samples in order to mute any carry-over effects. […] One panelist found the sucrose-containing solution to be the most bitter. […] The panelist that reported the sucrose-containing solution to be less bitter than the maltotriose containing solution, self-identified as an individual not particularly sensitive to the bitterness of rebaudioside A 97. Therefore, the bitterness masking effect of maltotriose may be more plainly observed in those more sensitive to the bitterness of rebaudioside A 97.\nThree aqueous solutions of 1000 ppm rebaudioside A 97 were prepared with 10% maltotetraose-enriched syrup (containing 60% maltotetraose on a dry weight basis with other carbohydrates including maltotriose, maltose and glucose), 2.5% sucrose, or no additional component. As a note, the sweetness of a 10% maltotetraose solution is roughly equal to a 2.5% sucrose solution. Three panelists were asked to assess the samples for comparative bitterness and were instructed to rinse with water between samples in order to mute any carry-over effects. […] Therefore, the bitterness masking effect of maltotetraose may be more plainly observed in those sensitive to the bitterness of rebaudioside A 97."}, "panelists [5]": {"test_system": "panelists", "test": "Off flavor intensity rating across the rebaudioside A dose response", "type": "in vivo, human", "description": "as §1\nas §2, with “asked. […]” for “asked.”"}, "human sense of taste": {"test_system": "human sense of taste", "test": "Taste threshold concentration in aqueous solution", "type": "in vivo", "conditions": "neutral aqueous solution containing no other ingredients", "source_text": "As used herein, the term “taste threshold concentration associated with the tri-/tetra-saccharide(s)” means the minimum concentration at which a person can still taste the tri-/tetra-saccharide(s) by the human sense of taste, in particular in an aqueous solution containing no ingredient other than water and the tri-/tetra-saccharide(s). This taste threshold concentration may vary somewhat from person to person. For example, melezitose has a taste threshold concentration of about 2.5% by weight in a neutral aqueous solution containing no other ingredients."}, "[6]": {"conditions": "dissolves in 100 g water at 21° C.; cited from earlier work"}, "[7]": {"conditions": "recent studies, Food Chemistry 132 (2012) 1951-1958; cited from earlier work"}, "S. mutans": {"test_system": "S. mutans", "conditions": "recent studies, Food Chemistry 132 (2012) 1951-1958; cited from earlier work"}}}
{"compound": "OC[C@H]1O[C@H](OC[C@H]2O[C@H](OC[C@H]3O[C@H](O[C@]4(CO)O[C@H](CO)[C@@H](O)[C@@H]4O)[C@H](O)[C@@H](O)[C@@H]3O)[C@H](O)[C@@H](O)[C@H]2O)[C@H](O)[C@@H](O)[C@H]1O", "note": "[Stachyose, stachyose]", "values": [{"measurement": "degree of digestibility", "setting": "[1]", "value": "low"}, {"measurement": "sweetness relative to sucrose", "setting": "[2]", "value": "approximately 28%"}]}
{"compound": "OC[C@H]1O[C@H](O[C@H]2[C@H](O)[C@@H](O)[C@@H](O[C@H]3[C@H](O)[C@@H](O)[C@@H](O[C@H]4[C@H](O)[C@@H](O)C(O)O[C@@H]4CO)O[C@@H]3CO)O[C@@H]2CO)[C@H](O)[C@@H](O)[C@@H]1O", "note": "(some centres unmarked) [maltotetraose]", "values": [{"measurement": "sweetness equivalence, as % solution of sucrose", "setting": "panelists [3]", "value": "~2.5", "unit": "%"}, {"measurement": "masking the bitterness of rebaudioside A 97", "setting": "panelists [4]", "value": "effective"}]}
{"compound": "OC[C@H]1O[C@@](CO)(O[C@H]2O[C@H](CO)[C@@H](O)[C@H](O)[C@H]2O)[C@@H](O[C@H]2O[C@H](CO)[C@@H](O)[C@H](O)[C@H]2O)[C@@H]1O", "note": "[melezitose, α-D-glucose (1-3)-β-D-fructose (2-1)-α-D-glucose]", "values": [{"measurement": "sweetness equivalence, as % solution of sugar (sucrose)", "setting": "panelists [3]; 5% solution of the saccharide", "value": "~1", "unit": "%"}, {"measurement": "sweetness equivalence, as % solution of sucrose", "setting": "panelists [3]", "value": 2.5, "unit": "%"}, {"measurement": "reduction of off-tastes of Reb A", "setting": "panelists [5]; 5% solution of melezitose (subsweet), FIG. 5", "value": "clear impact on the reduction of off-tastes"}, {"measurement": "reduction of off-tastes of Reb A", "setting": "panelists [5]; 10% melezitose solution, as sweet as 2.5% sucrose, FIG. 6", "value": "dramatic"}, {"measurement": "taste threshold concentration", "setting": "human sense of taste", "value": "about 2.5 % by weight"}, {"measurement": "solubility in water", "setting": "[6]", "value": 26.8, "unit": "g"}, {"measurement": "digestibility by in vitro assay", "setting": "[7]", "value": "not to be digestible"}, {"measurement": "utilization by S. mutans in dental caries assay", "setting": "S. mutans", "value": "not utilized"}]}
{"compound": "OC[C@H]1O[C@@](CO)(O[C@H]2O[C@H](CO)[C@@H](O)[C@H](O)[C@H]2O)[C@@H](O)[C@@H]1O", "note": "[sucrose, reference compound]", "values": [{"measurement": "increase of sweet taste perception of the Reb A dose response curve", "setting": "panelists [3]; 2.5% solution of sucrose, FIG. 1", "value": "about 2.5 sweetness units"}, {"measurement": "reduction of off flavors of Reb A", "setting": "panelists [5]; 2.5% solution of sucrose, FIG. 4", "value": "reduced somewhat"}, {"measurement": "comparative bitterness versus neat rebaudioside A solution", "setting": "panelists [4]; 1000 ppm rebaudioside A 97 with 2.5% sucrose, two of three panelists (Example 3)", "value": "equal in bitterness to the neat rebaudioside A solution"}]}
{"compound": "maltotriose", "values": [{"measurement": "sweetness equivalence, as % solution of sucrose", "setting": "panelists [3]", "value": "~2.5", "unit": "%"}, {"measurement": "comparative bitterness versus rebaudioside A control", "setting": "panelists [4]; 1000 ppm rebaudioside A 97 in water with 10% test saccharide", "value": "less bitter than the rebaudioside A control"}, {"measurement": "panelists who found the sample the least bitter of the three samples", "setting": "panelists [4]; 1000 ppm rebaudioside A 97 with 10% test saccharide, versus 2.5% sucrose and no additional component, three panelists", "value": "Two of the three"}, {"measurement": "panelists who found the sample less bitter than the rebaudioside A control", "setting": "panelists [4]; 1000 ppm rebaudioside A 97 with 10% test saccharide, three panelists", "value": "All three"}, {"measurement": "masking the bitterness of rebaudioside A 97", "setting": "panelists [4]", "value": "effective"}]}
